Data on three compounds can be found in patent US10912770B2, “Targeting AMP deaminase 2 for ameliorating craving for sugar and other substances” (The Regents of the University of Colorado, a body coporate, priority 2016, dated 2021).

“Also recorded” adds a separate entry of the source.

In one experiment the target is T1, adenosine deaminase (Homo sapiens, UniProt P00813).
T1 sequence (P00813 1-363): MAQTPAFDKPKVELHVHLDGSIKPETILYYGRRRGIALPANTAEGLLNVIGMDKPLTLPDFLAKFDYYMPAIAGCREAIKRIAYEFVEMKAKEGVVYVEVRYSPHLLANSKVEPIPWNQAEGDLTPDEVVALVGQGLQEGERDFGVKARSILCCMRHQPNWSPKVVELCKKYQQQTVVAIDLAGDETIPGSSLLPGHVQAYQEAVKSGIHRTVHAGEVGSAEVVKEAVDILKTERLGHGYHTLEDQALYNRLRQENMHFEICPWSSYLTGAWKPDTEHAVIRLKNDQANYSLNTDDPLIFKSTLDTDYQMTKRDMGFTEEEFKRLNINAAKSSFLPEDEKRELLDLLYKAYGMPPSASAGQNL
The note with it: cited from earlier work.

The test system of another experiment is human AMPDA. The note with it: cited from earlier work; for Ki: human AMPDA, read-out: AMPDA K(i).
For a further experiment, the target named is T2, AMPD2 (Mus musculus, UniProt Q9DBT5).
T2 construct: from tissue
T2 sequence (Q9DBT5 1-824): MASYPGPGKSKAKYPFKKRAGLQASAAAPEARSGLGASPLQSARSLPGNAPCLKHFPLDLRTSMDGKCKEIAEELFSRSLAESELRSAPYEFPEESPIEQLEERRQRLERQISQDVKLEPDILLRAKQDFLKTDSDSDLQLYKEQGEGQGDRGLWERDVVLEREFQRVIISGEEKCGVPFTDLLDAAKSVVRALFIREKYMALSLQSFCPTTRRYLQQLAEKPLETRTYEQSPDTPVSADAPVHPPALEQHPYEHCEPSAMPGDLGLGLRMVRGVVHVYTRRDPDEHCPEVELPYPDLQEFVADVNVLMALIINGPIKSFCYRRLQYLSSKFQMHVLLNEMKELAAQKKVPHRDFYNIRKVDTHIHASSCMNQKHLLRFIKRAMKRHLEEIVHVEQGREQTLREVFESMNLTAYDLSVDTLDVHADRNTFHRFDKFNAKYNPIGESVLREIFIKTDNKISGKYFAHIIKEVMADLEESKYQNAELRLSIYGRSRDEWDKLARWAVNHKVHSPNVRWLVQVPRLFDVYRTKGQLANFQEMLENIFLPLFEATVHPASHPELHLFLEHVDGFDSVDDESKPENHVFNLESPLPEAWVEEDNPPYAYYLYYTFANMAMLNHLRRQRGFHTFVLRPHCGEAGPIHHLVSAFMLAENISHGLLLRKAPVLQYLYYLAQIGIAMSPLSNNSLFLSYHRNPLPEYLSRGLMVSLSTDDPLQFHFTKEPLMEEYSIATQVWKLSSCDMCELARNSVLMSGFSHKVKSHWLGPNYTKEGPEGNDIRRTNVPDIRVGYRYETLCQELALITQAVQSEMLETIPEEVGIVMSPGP
The experiment in a line: AMPD2 activity in the liver after oral pan AMPD inhibitor. It counts as in vivo. The note with it: wild type mice, gavage 25 mg/kg twice daily (50 mg/kg/d). Here is the method: (§1) Mice were administered the racemate of the active compound 1 (FIG. 2 in the paper by Admyre et al Chem Biol 2014; 21:1488-1496) by gavage at a dose of 25 mg/kg twice daily beginning two days before administering fructose (15%) in the drinking water.
(§2) The benefit from blocking AMPD2 on craving is not limited to mice genetically lacking AMPD2. Recently an inhibitor for AMPD2 was published, and we made a racemate of the active compound 1 (FIG. 2 in the paper by Admyre et al Chem Biol 2014; 21:1488-1496).

Another experiment deals with wild type mice. Briefly: Fructose craving: intake of fructose (15%) drinking water. The class given is in vivo. As to the method:
as §1, §2

In the case of “3-[2-(3-carboxy-4-bromo-5,6,7,8-tetrahydronaphthyl)ethyl]-3,6,7,8-tetrahydroimidazo[4,5-d][1,3]diazepin-8-ol [Compound 24b]”, at adenosine deaminase, the enzyme specificity result is recorded as “without loss in the enzyme specificity”. Also, in the experiment on human AMPDA, the “enhancement in AMPDA inhibitory potency” value is listed as 10- to 250 fold, the “potency (K(i)) lower than the Km for the substrate AMP” value was 10(5) fold and the Ki was 2 nM.

With `CCc1cc(CCn2cnc3c2N=CNCC3O)cc(C(=O)O)c1` (centres unmarked) [43 g, 3-[2-(3-carboxy-5-ethylphenyl)ethyl]-3,6,7,8-tetrahydroimidazo[4,5-d][1,3]diazepin-8-ol], on human AMPDA, the Ki was 60 nM.

With `CC(NCc1ccc(-c2ccc(C(=O)O)cn2)cc1)c1cccc2ccncc12` (racemic) [racemate of the active compound 1, 6-(4-((1-(Isoquinolin-8-yl)ethylamino)methyl)phenyl)nicotinic acid], on AMPD2, the “AMPD2 activity in the liver” value is “significantly block AMPD2 activity in the liver; also recorded: inhibition of AMPD2 activity in the liver”. In addition, in the experiment with wild type mice (gavage 25 mg/kg twice daily (50 mg/kg/d), fructose (15%) water), the craving for fructose result is listed as “completely blocked the craving for fructose”. In addition, the “intake of fructose-containing water” value with wild type mice (gavage 25 mg/kg twice daily from two days before fructose (15%) in drinking water) is “significantly reduce the intake of fructose-containing water”.
